Test results published in paper PMC10778198, “First-in-Human Dose-Escalation Study of the Novel Oral Depsipeptide Class I-Targeting HDAC Inhibitor Bocodepsin (OKI-179) in Patients with Advanced Solid Tumors” (Cancers, 2023).

System: patients with advanced solid tumors
Assay: phase I dose escalation: safety, DLT, MTD, RP2D (CTCAE v. 5)
Assay type: in vivo
Conditions: 5:2, 300 mg (N=6)
Description: Subsequent dosing cohorts were enrolled using a standard 3 + 3 design.
If any patient in any cohort of three patients developed a DLT during cycle 1, an additional three patients were recruited to expand the cohort to up to six evaluable patients. If two or more patients in any expanded cohort developed a DLT, this dose was considered non-tolerated, and dose escalation was discontinued. The MTD was defined as the highest dose level for which no more than one of six patients experienced a DLT.
Patients were continuously evaluated for adverse events throughout the study using the Common Terminology Criteria of Adverse Events (CTCAE v. 5). The patients underwent a clinical history and physical examination, an ECOG PS, a complete blood count (CBCs), chemistry, coagulation studies, urinalysis, a serum pregnancy test (as applicable), a triplicate ECG, an ophthalmology examination, and baseline tumor assessment at screening. During cycle 1, weekly history and physical examination, CBC, chemistry, coagulation parameters, urinalysis, and triplicate ECGs were performed; in subsequent cycles, weekly labs were limited to a CBC. Repeat ophthalmology examinations were performed at cycle 3, day 1, and at the end of treatment. Repeat tumor assessment was performed every 2 cycles (6 weeks) in accordance with RECIST 1.1.

CC(C)[C@H](N)C(=O)SCC/C=C/[C@@H]1CC(=O)NCc2nc(cs2)C(=O)NC(C)(C)C(=O)N[C@@H](C(C)C)C(=O)O1 [OKI-179, Bocodepsin]
TEAE: Aspartate aminotransferase increased (All grades): 1 (17) N (%) | TEAE: Back pain (All grades): 2 (33) N (%) | TEAE: Bile duct stenosis (All grades): 1 (17) N (%) | TEAE: Blood alkaline phosphatase increased (All grades): 1 (17) N (%) | TEAE: Decreased appetite (All grades): 2 (33) N (%) | TEAE: Dehydration (All grades): 1 (17) N (%) | TEAE: Dysphagia (All grades): 1 (17) N (%) | TEAE: ECG QT prolonged (All grades): 2 (33) N (%) | TEAE: Enterococcal bacteremia (All grades): 1 (17) N (%) | TEAE: Esophagitis (All grades): 1 (17) N (%) | TEAE: Esophagoscopy (All grades): 1 (17) N (%) | TEAE: Eye pain (All grades): 1 (17) N (%) | TEAE: Fatigue (All grades): 4 (67) N (%) | TEAE: Gastritis (All grades): 1 (17) N (%) | TEAE: Hypomagnesaemia (All grades): 1 (17) N (%) | TEAE: Myalgia (All grades): 1 (17) N (%) | TEAE: Nausea (All grades): 5 (83) N (%) | TEAE: Neutrophil count decreased (All grades): 1 (17) N (%) | TEAE: Oropharyngeal pain (All grades): 1 (17) N (%) | TEAE: Pain in extremity (All grades): 1 (17) N (%) | TEAE: Paresthesia (All grades): 1 (17) N (%) | TEAE: Platelet count decreased (All grades): 4 (67) N (%) | TEAE: Pneumonitis (All grades): 1 (17) N (%) | TEAE: Pneumothorax (All grades): 1 (17) N (%) | TEAE: Vomiting (All grades): 3 (50) N (%) | TEAE: Abdominal pain (G1): 0 N (%) | TEAE: Anemia (G1): 1 (17) N (%) | TEAE: Aspartate aminotransferase increased (G1): 1 (17) N (%) | TEAE: Back pain (G1): 1 (17) N (%) | TEAE: Bile duct stenosis (G1): 0 N (%) | TEAE: Blood alkaline phosphatase increased (G1): 1 (17) N (%) | TEAE: Decreased appetite (G1): 0 N (%) | TEAE: Dehydration (G1): 1 (17) N (%) | TEAE: Dysphagia (G1): 0 N (%) | TEAE: ECG QT prolonged (G1): 2 (33) N (%) | TEAE: Enterococcal bacteremia (G1): 0 N (%) | TEAE: Esophagitis (G1): 1 (17) N (%) | TEAE: Esophagoscopy (G1): 0 N (%) | TEAE: Eye pain (G1): 1 (17) N (%) | TEAE: Fatigue (G1): 1 (17) N (%) | TEAE: Gastritis (G1): 1 (17) N (%) | TEAE: Hypomagnesaemia (G1): 1 (17) N (%) | TEAE: Myalgia (G1): 1 (17) N (%) | TEAE: Nausea (G1): 4 (67) N (%) | TEAE: Neutrophil count decreased (G1): 1 (17) N (%) | TEAE: Oropharyngeal pain (G1): 0 N (%) | TEAE: Pain in extremity (G1): 0 N (%) | TEAE: Paresthesia (G1): 1 (17) N (%) | TEAE: Platelet count decreased (G1): 4 (67) N (%) | TEAE: Pneumonitis (G1): 0 N (%) | TEAE: Pneumothorax (G1): 0 N (%) | TEAE: Vomiting (G1): 2 (33) N (%) | TEAE: Abdominal pain (G2): 1 (17) N (%) | TEAE: Anemia (G2): 0 N (%) | TEAE: Aspartate aminotransferase increased (G2): 0 N (%) | TEAE: Back pain (G2): 0 N (%) | TEAE: Bile duct stenosis (G2): 0 N (%) | TEAE: Blood alkaline phosphatase increased (G2): 0 N (%) | TEAE: Decreased appetite (G2): 1 (17) N (%) | TEAE: Dehydration (G2): 0 N (%) | TEAE: Dysphagia (G2): 1 (17) N (%) | TEAE: ECG QT prolonged (G2): 0 N (%) | TEAE: Enterococcal bacteremia (G2): 0 N (%) | TEAE: Esophagitis (G2): 0 N (%) | TEAE: Esophagoscopy (G2): 1 (17) N (%) | TEAE: Eye pain (G2): 0 N (%) | TEAE: Fatigue (G2): 3 (50) N (%) | TEAE: Gastritis (G2): 0 N (%) | TEAE: Hypomagnesaemia (G2): 0 N (%) | TEAE: Myalgia (G2): 0 N (%) | TEAE: Nausea (G2): 0 N (%) | TEAE: Neutrophil count decreased (G2): 0 N (%) | TEAE: Oropharyngeal pain (G2): 1 (17) N (%) | TEAE: Pain in extremity (G2): 1 (17) N (%) | TEAE: Paresthesia (G2): 0 N (%)
